According to EP0007525A1, “2-(4-Aminopiperidino)-3.4-dihydroquinoline derivatives, processes for their preparation, pharmaceutical compositions containing them and their use” (HOECHST AKTIENGESELLSCHAFT, priority 1978, dated 1980):

Columns and labels:
Type in all cases: in vivo
[1] = system: narkosierten Hund; assay: Blood pressure lowering in the anaesthetised dog (pentobarbital sodium), i.v. administration; settings: 1 mg/kg intravenous; for Blutdrucksenkung: significant lowering; for Dauer der Blutdrucksenkung: time over which lowering of at least 20 mm persists
Method: (§1) 1)Die blutdrucksenkende Wirkung wurde am narkosierten Hund und an der Hochdruckratete bestimmt.
Hunde werden mit Pentobarbital-Natrium (^(R)Nembutal) (35 mg/kg i.p.) narkotisiert, die Prüfsubstanz in Dosen von 0,5-5 mg/kg. intravenös appliziert und die Blutdrucksenkung laufend über 30 bis 60 Minuten, bei längerer Wirksamkeit auch länger, fortlaufend registriert. Eine signifikante Senkung von mindestens 20 mm über mindestens 30 Minuten tritt z.B. nach Applikation der Verbindungen der Beispiele Nr. 6 und 31b in Dosen von jeweils 1 mg/kg ein.

[2] = system: genetischen Hochdruckratte; assay: Blood pressure lowering in the genetically hypertensive rat, oral administration; settings: 15 mg/kg per os, within 18 hours
Method: as §1
Zur Prüfung an der genetischen Hochdruckratte werden die Substanzen oral verabreicht. Die Verbindung des Beispiels 31b bewirkt bei einer Dosierung von 15 mg/kg per os innerhalb von 18 Stunden einen Blutdruckabfall von 30 - 50 mm.

[3] = system: mit Strophantin vergiftete Hund; assay: Antiarrhythmic effect in the strophanthin-poisoned dog (ventricular extrasystoles, ECG); settings: dog poisoned with K-Strophanthin i.v. infusion until frequent ventricular extrasystoles; 1 mg/kg intravenous; active = arrhythmia completely abolished
Source text: 2) Zur Prüfung auf antiarrythmische Wirkung wird der mit Strophantin vergiftete Hund verwendet (Methode: Laszlo Szekeres, Institute of Pharmacology, University Medical School of Szeged, Hungary, Methods for Evaluating Antiarrhytmic Agents" in Methods in Pharmacology I, New York 1971, Herausgeber A. Schwartz).

In the case of `NC1CCN(C2=Nc3ccccc3CC2)CC1` [Beispiel 31b, 2-(4-Amino-1-piperidyl)-3,4-dihydrochinolin], the Blutdrucksenkung [1] is reported as at least 20 mm, the “Dauer der Blutdrucksenkung” value [1] is reported as at least 30 Minuten and the Blutdruckabfall [2] is reported as 30 - 50 mm.
In the case of `CC(C)(C)OC(=O)NC1CCN(C2=Nc3ccccc3CC2)CC1` [Beispiel 31a, 2-(4-Tert.butyloxycarbonylamino-1-piperidyl)-3,4-dihydro-chinolin], the “antiarrythmische Wirkung (Beseitigung der Rhythmusstörungen)” value [3] is reported as “Rhythmusstörungen völlig zu beseitigen vermochte”.
For `COc1cc2c(cc1OC)N=C(N1CCC(NC(=O)c3ccccc3)CC1)CC2` [Beispiel 6], the Blutdrucksenkung [1] was at least 20 mm and the “Dauer der Blutdrucksenkung” value [1] was at least 30 Minuten.
